The record followed here is ChEMBL document CHEMBL1201862, “PubChem BioAssay data set” (2004).

The target in test [1] is T1, Calpain-2 catalytic subunit (Sus scrofa, UniProt P43367).
T1 sequence (P43367 whole entry): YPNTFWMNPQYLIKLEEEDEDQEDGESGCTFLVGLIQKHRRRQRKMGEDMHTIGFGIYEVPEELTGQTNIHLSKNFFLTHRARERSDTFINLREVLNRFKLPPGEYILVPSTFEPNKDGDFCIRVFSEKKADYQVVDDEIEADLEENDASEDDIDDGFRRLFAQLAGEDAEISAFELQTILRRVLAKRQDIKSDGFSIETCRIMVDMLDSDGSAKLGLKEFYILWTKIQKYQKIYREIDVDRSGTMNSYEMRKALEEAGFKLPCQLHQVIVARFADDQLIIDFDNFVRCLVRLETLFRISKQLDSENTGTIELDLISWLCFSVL
Nature of the test: m-calpain protease blockers, concentration series – biochemical, fluorogenic peptide substrate, dose response (AID 1420). Format: functional.

Test [2] deals with T2, Neuropeptide Y receptor type 1 (Homo sapiens, UniProt P25929).
T2 sequence (P25929 whole entry): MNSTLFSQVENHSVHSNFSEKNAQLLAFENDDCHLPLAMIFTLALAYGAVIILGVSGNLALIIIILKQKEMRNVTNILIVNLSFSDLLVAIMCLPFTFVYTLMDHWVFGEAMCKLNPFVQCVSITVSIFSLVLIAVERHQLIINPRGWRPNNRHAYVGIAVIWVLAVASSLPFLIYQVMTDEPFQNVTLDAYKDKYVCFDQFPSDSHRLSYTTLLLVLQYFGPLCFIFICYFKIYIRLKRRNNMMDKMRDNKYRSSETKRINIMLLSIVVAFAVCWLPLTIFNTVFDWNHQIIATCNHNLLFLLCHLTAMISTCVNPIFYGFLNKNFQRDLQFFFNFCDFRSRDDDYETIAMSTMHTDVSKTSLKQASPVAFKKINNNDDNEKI
Format: functional.

The nature of test [3]: NIH3T3 cell viability loss – ATP luminescence, mouse fibroblasts, counter-screen, dose response (AID 2010).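 Note: cells exposed to compound for about 90 hours before reading.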 Type of test: functional, cell-based.
The target of test [4] is T3, Neuropeptide Y receptor type 2 (Homo sapiens, UniProt P49146).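 Note: HEK293 cells expressing the receptor and a CNG channel; stimulus was NPY near EC95 followed by isoproterenol to raise cAMP; antagonist potency measured as restoring cAMP signal that NPY suppresses.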
T3 sequence (P49146 whole entry): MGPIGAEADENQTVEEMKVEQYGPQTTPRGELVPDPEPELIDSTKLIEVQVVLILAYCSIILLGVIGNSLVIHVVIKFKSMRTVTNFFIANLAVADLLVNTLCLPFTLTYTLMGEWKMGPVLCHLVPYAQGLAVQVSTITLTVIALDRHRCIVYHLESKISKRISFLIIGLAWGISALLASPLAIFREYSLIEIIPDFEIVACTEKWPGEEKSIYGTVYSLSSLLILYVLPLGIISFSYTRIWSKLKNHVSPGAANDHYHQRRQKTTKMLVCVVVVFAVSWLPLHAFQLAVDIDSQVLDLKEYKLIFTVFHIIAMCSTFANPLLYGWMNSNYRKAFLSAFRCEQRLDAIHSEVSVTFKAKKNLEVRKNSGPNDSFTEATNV
Format: functional, cell-based.

Test [5] in a line: Trypanosoma cruzi growth suppression in host cells – NIH3T3 host cells, beta-gal luminescence, confirmation (AID 2044).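 Note: intracellular parasites grown in NIH/3T3 mouse fibroblasts as host cells; luminescent beta-galactosidase reporter signal from transgenic T. cruzi replicating inside host cells; inhibitors lower the luminescence signal.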 Format: functional, cell-based.
The target of test [6] is Lytic switch protein BZLF1 (Epstein-Barr virus (strain B95-8) (HHV-4) (Human herpesvirus 4), UniProt P03206). Nature of the test: inhibition of BZLF1 ZTA DNA binding – biochemical, fluorescence polarization, Epstein-Barr virus, 1536-well, counter-screen for EBNA-1 inhibitor project, dose response (AID 2377).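 Note: fluorescence polarization of Cy5-labelled ZRE DNA probe bound by purified Zta.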 Also on record: species or system human gammaherpesvirus 4. For orientation: Polarisation of emitted light reports the rotation of a fluorescent probe.
Lytic switch protein BZLF1, sequence (P03206 whole entry): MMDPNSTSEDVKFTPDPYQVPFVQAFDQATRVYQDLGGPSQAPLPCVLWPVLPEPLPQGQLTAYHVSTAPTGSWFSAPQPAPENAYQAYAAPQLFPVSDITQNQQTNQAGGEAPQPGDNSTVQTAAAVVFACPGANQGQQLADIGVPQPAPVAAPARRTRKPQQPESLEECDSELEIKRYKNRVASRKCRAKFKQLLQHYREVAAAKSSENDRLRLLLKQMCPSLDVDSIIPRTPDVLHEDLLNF

Test [7] has as its target Epstein-Barr nuclear antigen 1 (Epstein-Barr virus (strain B95-8) (HHV-4) (Human herpesvirus 4), UniProt P03211). The test can be described thus: inhibition of EBV nuclear antigen 1 DNA binding – biochemical, fluorescence polarization, 1536-well, dose response (AID 2381).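 Note: fluorescence polarization of a Cy5 DNA probe bound by EBNA-1 protein.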 Also on record: species or system human gammaherpesvirus 4.
A short description of test [8]: Luminescence Cell-Based Dose Response HTS to Identify Inhibitors of 5'UTR Stem-Loop Driven Prion Protein mRNA Translation in H4 Neuroglioblastoma Cells. [Related pubchem assays: 1827 (Project Summary), 1813 (Primary HTS)]. Type of test: functional.
The nature of test [9]: A Cell Based Secondary Assay To Explore Cytotoxicity of Compounds that Sensitize Mycobacterium Tuberculosis to Beta-Lactam Antibiotics. Type of test: functional.
The nature of test [10]: luciferase reporter signal suppression in cells – H4 neuroglioma cells, luminescence, dose response (AID 1990). Type of test: functional, cell-based. A general note: In a reporter assay the amount or activity of a reporter protein is the signal.
The nature of test [11]: alpha-synuclein stem-loop luciferase translation blockers – H4 neuroglioma cells, luminescence, confirmation (AID 1988). Format: functional, cell-based.
The next test concerns the target T4, NADPH oxidase 1 (Homo sapiens, UniProt Q9Y5S8).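 Note: Cell-based assay with luminescence read-out, IC50 derived from inhibitor dose-response curves; intracellular ROS from endogenous NOX1 in intact HT29 colon cancer cells; potency of inhibitors that lower the ROS luminescence signal.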
T4 sequence (Q9Y5S8 whole entry): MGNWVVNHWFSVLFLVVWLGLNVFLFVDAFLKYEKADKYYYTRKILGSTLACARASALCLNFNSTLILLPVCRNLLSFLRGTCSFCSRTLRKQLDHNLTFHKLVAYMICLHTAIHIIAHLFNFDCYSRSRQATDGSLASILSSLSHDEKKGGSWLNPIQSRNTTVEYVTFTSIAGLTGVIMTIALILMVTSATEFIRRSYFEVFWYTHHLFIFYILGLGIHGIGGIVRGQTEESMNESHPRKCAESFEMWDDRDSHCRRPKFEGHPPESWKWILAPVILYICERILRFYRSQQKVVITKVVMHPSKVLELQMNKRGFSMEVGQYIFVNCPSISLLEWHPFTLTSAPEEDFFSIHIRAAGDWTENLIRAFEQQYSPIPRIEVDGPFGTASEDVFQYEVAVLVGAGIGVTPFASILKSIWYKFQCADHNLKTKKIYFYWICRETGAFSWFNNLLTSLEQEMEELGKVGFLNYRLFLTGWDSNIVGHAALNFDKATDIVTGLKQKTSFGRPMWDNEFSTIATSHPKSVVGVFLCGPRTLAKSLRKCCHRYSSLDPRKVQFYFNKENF
Format: functional, cell-based.

Test [12] deals with T5, Microphthalmia-associated transcription factor (Homo sapiens, UniProt O75030).
T5 sequence (O75030 whole entry): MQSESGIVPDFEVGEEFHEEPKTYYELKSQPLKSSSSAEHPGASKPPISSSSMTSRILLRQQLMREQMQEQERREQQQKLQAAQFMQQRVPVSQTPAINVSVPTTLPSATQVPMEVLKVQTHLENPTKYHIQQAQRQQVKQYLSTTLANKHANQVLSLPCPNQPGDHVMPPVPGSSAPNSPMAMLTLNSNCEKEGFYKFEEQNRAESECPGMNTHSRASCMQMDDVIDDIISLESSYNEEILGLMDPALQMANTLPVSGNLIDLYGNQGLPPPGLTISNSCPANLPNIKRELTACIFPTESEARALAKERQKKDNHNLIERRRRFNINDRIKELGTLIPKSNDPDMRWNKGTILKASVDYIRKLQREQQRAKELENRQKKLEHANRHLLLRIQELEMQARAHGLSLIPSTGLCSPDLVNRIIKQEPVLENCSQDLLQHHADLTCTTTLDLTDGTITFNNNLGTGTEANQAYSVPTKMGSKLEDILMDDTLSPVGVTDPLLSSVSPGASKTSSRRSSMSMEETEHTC
Nature of the test: reducers of TRPM1 reporter luminescence, concentration series – cell-based, SK-MEL-5, cherry-picked, set 3, MITF inhibitor project, dose response (AID 493073).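 Note: SK-MEL-5 melanoma cells with luciferase driven by the MITF target TRPM1 promoter.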 Type of test: functional.

Test [13] addresses Luciferin 4-monooxygenase (Photinus pyralis, UniProt P08659). The test can be described thus: Counter Screen for Luciferase-based Assay Positives. [Related pubchem assays: 620, 618, 411 ]. In general terms: The purpose of a counterscreen is to sort out artefacts and off-target activity.
In a further test the test system is HT-1080. The test can be described thus: HT1080 cell viability loss – fluorescence readout (AID 620). Type of test: functional, cell-based. To be noted: Homo sapiens.
The nature of test [14]: Luminescence-based dose response cell-based high throughput screening assay for cytotoxic compounds using the IEC-6 intestinal epithelial cell line. [Related pubchem assays: 1858 (Summary AID.), 1825 (Counterscreen.), 1907 (Confirmation screen.)]. Format: functional.
Test [15] in a line: HEK-293T cell viability reduction – luminescence, B-cell screen hits, cytotoxicity control for BCR NF-kB inhibitor project, dose response (AID 489021).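 Note: HEK-293T cells carrying an NF-kB luciferase reporter; cells exposed to compound for about 14 hours before viability readout.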 Type of test: functional, cell-based.
The next test concerns the target Cytochrome P450 3A4 (Homo sapiens, UniProt P08684).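 Note: CYP3A4 tested as one member of a cytochrome P450 panel screen.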
A short description of test [16]: viability of uninfected HEp-2 cells – cell-based, HTS, cytotoxicity control for RSV inhibitor project, dose response (AID 2410). Type of test: functional. To be noted: human respiratory syncytial virus.
The next test concerns the target Cytochrome P450 2C9 (Homo sapiens, UniProt P11712).

Activity calls are given as the source filed them.

Epstein-Barr nuclear antigen 1, sequence (P03211 whole entry): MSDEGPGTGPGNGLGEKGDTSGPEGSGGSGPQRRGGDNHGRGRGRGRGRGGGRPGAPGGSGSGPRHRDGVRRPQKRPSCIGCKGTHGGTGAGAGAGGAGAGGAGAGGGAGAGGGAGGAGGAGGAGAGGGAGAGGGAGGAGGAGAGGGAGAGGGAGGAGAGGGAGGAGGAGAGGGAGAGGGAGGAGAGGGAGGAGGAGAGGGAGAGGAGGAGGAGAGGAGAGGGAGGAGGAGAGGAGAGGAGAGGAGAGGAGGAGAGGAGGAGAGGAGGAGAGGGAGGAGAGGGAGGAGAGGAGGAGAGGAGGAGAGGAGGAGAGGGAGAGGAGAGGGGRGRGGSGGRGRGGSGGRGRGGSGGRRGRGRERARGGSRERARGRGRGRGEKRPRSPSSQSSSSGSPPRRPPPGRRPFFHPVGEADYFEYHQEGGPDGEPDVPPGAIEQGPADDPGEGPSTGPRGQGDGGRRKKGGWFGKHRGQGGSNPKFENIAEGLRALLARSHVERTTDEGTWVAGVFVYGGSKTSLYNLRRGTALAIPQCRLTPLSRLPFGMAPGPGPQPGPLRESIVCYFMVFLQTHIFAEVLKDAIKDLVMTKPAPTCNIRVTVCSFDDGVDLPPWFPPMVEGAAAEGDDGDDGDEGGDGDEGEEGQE
Cytochrome P450 2C9, sequence (P11712 whole entry): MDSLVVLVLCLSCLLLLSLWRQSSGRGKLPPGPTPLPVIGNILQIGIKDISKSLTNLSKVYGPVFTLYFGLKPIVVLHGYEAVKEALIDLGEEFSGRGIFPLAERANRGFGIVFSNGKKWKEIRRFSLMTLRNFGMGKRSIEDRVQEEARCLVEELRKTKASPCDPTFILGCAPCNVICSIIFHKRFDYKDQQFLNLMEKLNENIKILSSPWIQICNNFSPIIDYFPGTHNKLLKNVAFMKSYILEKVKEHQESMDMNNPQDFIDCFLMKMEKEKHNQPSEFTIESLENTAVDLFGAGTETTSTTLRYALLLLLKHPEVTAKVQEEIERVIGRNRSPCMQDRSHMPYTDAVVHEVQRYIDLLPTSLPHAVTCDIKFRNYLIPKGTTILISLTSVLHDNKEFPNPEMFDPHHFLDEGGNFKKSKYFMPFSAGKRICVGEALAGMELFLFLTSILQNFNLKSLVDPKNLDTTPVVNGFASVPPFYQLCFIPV
Luciferin 4-monooxygenase, sequence (P08659 whole entry): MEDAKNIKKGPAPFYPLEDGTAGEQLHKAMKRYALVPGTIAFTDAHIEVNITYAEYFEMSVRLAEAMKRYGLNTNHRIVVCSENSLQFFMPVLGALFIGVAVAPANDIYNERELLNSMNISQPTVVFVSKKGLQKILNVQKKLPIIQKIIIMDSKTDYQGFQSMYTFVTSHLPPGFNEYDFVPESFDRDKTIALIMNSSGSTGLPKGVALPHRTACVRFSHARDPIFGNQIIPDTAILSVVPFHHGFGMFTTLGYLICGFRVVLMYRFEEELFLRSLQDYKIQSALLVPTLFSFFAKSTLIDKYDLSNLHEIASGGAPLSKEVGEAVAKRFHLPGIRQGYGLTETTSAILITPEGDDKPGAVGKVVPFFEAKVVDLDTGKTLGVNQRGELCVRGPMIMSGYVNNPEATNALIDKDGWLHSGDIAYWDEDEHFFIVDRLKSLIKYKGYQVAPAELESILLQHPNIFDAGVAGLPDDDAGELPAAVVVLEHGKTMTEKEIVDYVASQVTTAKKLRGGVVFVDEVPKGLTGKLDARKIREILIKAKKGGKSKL
Cytochrome P450 3A4, sequence (P08684 whole entry): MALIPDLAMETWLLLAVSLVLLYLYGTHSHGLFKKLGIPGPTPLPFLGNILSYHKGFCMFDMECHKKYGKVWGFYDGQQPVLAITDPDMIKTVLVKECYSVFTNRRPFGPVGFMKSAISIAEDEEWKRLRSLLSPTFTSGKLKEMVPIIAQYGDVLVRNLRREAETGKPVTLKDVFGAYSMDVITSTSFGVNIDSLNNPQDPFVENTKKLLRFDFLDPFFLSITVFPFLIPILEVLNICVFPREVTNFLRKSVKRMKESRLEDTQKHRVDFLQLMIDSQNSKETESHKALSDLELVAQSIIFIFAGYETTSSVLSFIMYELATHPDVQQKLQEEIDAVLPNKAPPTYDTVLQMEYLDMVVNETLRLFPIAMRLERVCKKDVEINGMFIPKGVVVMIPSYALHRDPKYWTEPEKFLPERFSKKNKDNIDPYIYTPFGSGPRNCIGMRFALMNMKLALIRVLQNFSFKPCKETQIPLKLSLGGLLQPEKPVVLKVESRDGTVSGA

Broadly, the IC50 is the concentration needed to halve the response being measured. As usually defined, the EC50 is the concentration that produces a half-maximal response. Take `O=P(CCCCCCCCCP(=O)(c1ccccc1)c1ccccc1)(c1ccccc1)c1ccccc1`: the results for the IC50 in test [1], in test [2] and in test [4] were 12 µM (not active), 10.4 µM (not active) and 1.65 µM (active), respectively. For the same compound, the EC50 in [3] is > 60 µM (not active); in test [5], 1.29 µM (active).
`N#Cc1ccccc1OCC(=O)Nc1c(C(=O)C2CC2)oc2ccccc12`: the IC50 in [6] is on record as > 111 µM (not active); in test [7] it was 11 µM (not active).
Broadly, the CC50 is the concentration that lowers cell viability or growth by half. For the compound `CC(C)CCSc1nc(N2CCOCC2)c2c(c1C#N)CC(C)(C)OC2`, the EC50 in test [8] is > 120 µM (not active); in [3], > 60 µM (not active); in test [5], 1.3 µM (active); in test [10], 16.4 µM (active); in test [11] it was 31.3 µM (active). In test [9], the CC50 is > 40 µM (active).
As for `C=C(NNc1c(Cl)c(Cl)nc(C(=O)O)c1Cl)c1ccc(N2CCOCC2)cc1`, at NADPH oxidase 1, the IC50 is > 17 µM (not active).
For orientation: AC50 means the midpoint of the concentration-response curve, whichever way the signal moves. `O=C1c2ccccc2S(=O)(=O)N1Cc1nc2ccccc2s1`: the AC50 in test [12] is 2.7 µM (active). Also, the EC50 was 7.02 µM (active) in [8]; 7.63 µM (active) in [13]; 7.48 µM (active) in test [10]; 4.21 µM (active) in test [11]; > 50 µM (not active) with HT-1080.
`Cc1ccc2nc3c(O)n(Cc4ccco4)cnc-3c2c1`: the values for the IC50 in [6] and in test [7] were > 111 µM (not active) and > 148 µM (not active), respectively.
As for `COc1ccc2c(c1)Sc1ccc(Cl)cc1N2`, the IC50 at NADPH oxidase 1 is 0.177 µM (active).
For the compound `C(=N\Nc1nc(Nc2ccccc2)nc(N2CCOCC2)n1)/c1c[nH]c2ccccc12`, the IC50 is 0.244 µM (active) in test [14] and 28.5 µM (inactive) in [15]. Further, the EC50 in [3] is 0.536 µM (active); in [5] it was < 0.1 µM (active); in the test “cells”, 0.018 µM (active). The results for the AC50 at Cytochrome P450 3A4 and at Cytochrome P450 2C9 were 15.8 µM (inconclusive) and 17.8 µM (inconclusive), respectively. In test [16], the CC50 was 28.8 µM (active).
